{
  "source": "patent US20140079836A1",
  "about": "“METHODS AND COMPOSITIONS FOR ALTERING HEALTH, WELLBEING, AND LIFESPAN” (LifeSpan Extension, LLC, priority 2008, published 2014)",
  "tested_on": "Custom Array II Genes",
  "test": "Custom Array II gene expression, antioxidant alone or + UVB",
  "assay_type": "cell-based",
  "conditions": "Alone",
  "data": [
    {"smiles": "COC1=C(OC)C(=O)C(CCCCCCCCCCO)=C(C)C1=O", "note": "[Idebenone, 6-(10-hydroxydecyl)-2,3-dimethoxy-5-methyl-1,4-benzoquin-one]", "values": [
      {"measurement": "ACE (NM_000789) Expression", "result": "−1.0"},
      {"measurement": "ACTB (NM_001101) Expression", "result": 1.0},
      {"measurement": "APOE (NM_000041) Expression", "result": 1.0},
      {"measurement": "BAX (NM_004324) Expression", "result": 1.3},
      {"measurement": "BCL2 (NM_000633) Expression", "result": 1.2},
      {"measurement": "BCL2L1 (NM_138578) Expression", "result": 1.0},
      {"measurement": "BMP2 (NM_001200) Expression", "result": 1.1},
      {"measurement": "CASP2 (NM_032982) Expression", "result": 1.0},
      {"measurement": "CASP9 (NM_001229) Expression", "result": "−1.0"},
      {"measurement": "CCL4L1 (NM_001001435) Expression", "result": 1.0},
      {"measurement": "CDKN2A (NM_000077) Expression", "result": 1.0},
      {"measurement": "CLK1 (NM_004071) Expression", "result": 1.0},
      {"measurement": "COL1A1 (NM_000088) Expression", "result": 1.0},
      {"measurement": "COL3A1 (NM_000090) Expression", "result": "−1.1"},
      {"measurement": "COX1 (NP_536845) Expression", "result": 1.0},
      {"measurement": "CREBBP (NM_004380) Expression", "result": 1.0},
      {"measurement": "CRP (NM_000567) Expression", "result": "−1.0"},
      {"measurement": "CYP19A1 (NM_000103) Expression", "result": 1.4},
      {"measurement": "DDC (NM_000790) Expression", "result": 1.0},
      {"measurement": "DUSP2 (NM_004418) Expression", "result": 1.0},
      {"measurement": "EGF (NM_001963) Expression", "result": 1.0},
      {"measurement": "EGR2 (NM_000399) Expression", "result": 1.0},
      {"measurement": "FOS (NM_005252) Expression", "result": 1.0},
      {"measurement": "FOXO3 (NM_001455) Expression", "result": 1.0},
      {"measurement": "GADPH (NM_002046) Expression", "result": 1.3},
      {"measurement": "GCH1 (NM_000161) Expression", "result": 1.0},
      {"measurement": "GH1 (NM_000515) Expression", "result": 1.0},
      {"measurement": "GPX1 (NM_000581) Expression", "result": 1.0},
      {"measurement": "HBEGF (NM_001945) Expression", "result": 1.0},
      {"measurement": "HGDC (SA_00105) Expression", "result": 1.2},
      {"measurement": "HLA-DRA (NM_019111) Expression", "result": 1.0},
      {"measurement": "HMOX1 (NM_002133) Expression", "result": "−1.0"},
      {"measurement": "HPRT1 (NM_000194) Expression", "result": 1.2},
      {"measurement": "HSPA1A (NM_005345) Expression", "result": "−1.0"},
      {"measurement": "HSPA1B (NM_005346) Expression", "result": "−1.0"},
      {"measurement": "HSPA1L (NM_005527) Expression", "result": 1.0},
      {"measurement": "HSPA6 (NM_002155) Expression", "result": "−1.1"},
      {"measurement": "IFI44 (NM_006417) Expression", "result": "−1.6"},
      {"measurement": "IGF1 (NM_000618) Expression", "result": 1.1},
      {"measurement": "IGF2 (NM_000612) Expression", "result": 1.0},
      {"measurement": "IL1A (NM_000575) Expression", "result": "−1.0"},
      {"measurement": "IL6 (NM_000600) Expression", "result": "−1.0"},
      {"measurement": "IL8 (NM_000584) Expression", "result": "−1.2"},
      {"measurement": "IL10 (NM_000572) Expression", "result": 1.1},
      {"measurement": "IL11 (NM_000641) Expression", "result": "−1.1"},
      {"measurement": "IL33 (NM_033439) Expression", "result": "−1.1"},
      {"measurement": "IMMP1L (NM_144981) Expression", "result": "−1.0"},
      {"measurement": "JUN (NM_002228) Expression", "result": 1.0},
      {"measurement": "KIT (NM_000222) Expression", "result": "−1.3"},
      {"measurement": "KL (NM_004795) Expression", "result": 1.0},
      {"measurement": "KRAS (NM_004985) Expression", "result": "−1.4"},
      {"measurement": "MAPK14 (NM_001315) Expression", "result": 1.0},
      {"measurement": "MMP1 (NM_002421) Expression", "result": 1.0},
      {"measurement": "NADSYN1 (NM_018161) Expression", "result": 1.2},
      {"measurement": "NEIL1 (NM_024608) Expression", "result": 1.5},
      {"measurement": "NFKB1 (NM_003998) Expression", "result": "−1.5"},
      {"measurement": "NOS1 (NM_000620) Expression", "result": 1.9},
      {"measurement": "NOS2 (NM_000625) Expression", "result": 1.1},
      {"measurement": "NOS3 (NM_000603) Expression", "result": 1.0},
      {"measurement": "PARP1 (NM_001618) Expression", "result": 1.3},
      {"measurement": "PARP2 (NM_005484) Expression", "result": 1.3},
      {"measurement": "PARP3 (NM_005485) Expression", "result": "−1.0"},
      {"measurement": "PARP4 (NM_006437) Expression", "result": 1.1},
      {"measurement": "PARP9 (NM_031458) Expression", "result": 1.0},
      {"measurement": "PDGFRL (NM_006207) Expression", "result": "−1.1"},
      {"measurement": "POT1 (NM_015450) Expression", "result": "−1.0"},
      {"measurement": "PPARG (NM_015869) Expression", "result": "−1.0"},
      {"measurement": "PPARGC1 (NM_013261) Expression", "result": "−1.0"},
      {"measurement": "PPC (SA_00103) Expression", "result": 1.0},
      {"measurement": "PTGS2 (NM_000963) Expression", "result": "−1.2"},
      {"measurement": "RAP1A (NM_002884) Expression", "result": 1.3},
      {"measurement": "RTC (SA_00104) Expression", "result": 1.1},
      {"measurement": "S100A7 (NM_002963) Expression", "result": 1.1},
      {"measurement": "SERPINB (NM_002575) Expression", "result": 1.1},
      {"measurement": "SHC1 (NM_003029) Expression", "result": "−1.4"},
      {"measurement": "SIRT1 (NM_012238) Expression", "result": "−1.2"},
      {"measurement": "SIRT2 (NM_012237) Expression", "result": "−1.0"},
      {"measurement": "SIRT3 (NM_012239) Expression", "result": "−1.1"},
      {"measurement": "SIRT4 (NM_012240) Expression", "result": 1.1},
      {"measurement": "SOD1 (NM_000454) Expression", "result": "−1.0"},
      {"measurement": "SOD2 (NM_000636) Expression", "result": "−1.2"},
      {"measurement": "TEP1 (NM_007110) Expression", "result": 1.1},
      {"measurement": "TERF2 (NM_005652) Expression", "result": 1.0},
      {"measurement": "TERT (NM_198255) Expression", "result": 1.1},
      {"measurement": "TGFB1 (NM_000660) Expression", "result": "−1.1"},
      {"measurement": "TIMM22 (NM_013337) Expression", "result": 1.1},
      {"measurement": "TIMP3 (NM_000362) Expression", "result": 1.2},
      {"measurement": "TINF2 (NM_012461) Expression", "result": 1.1},
      {"measurement": "TNF (NM_000594) Expression", "result": "−1.1"},
      {"measurement": "TOMM40 (NM_006114) Expression", "result": 1.0},
      {"measurement": "TP53 (NM_000546) Expression", "result": "−1.1"},
      {"measurement": "TPP1 (NM_000391) Expression", "result": "−1.1"},
      {"measurement": "UBE2S (NM_014501) Expression", "result": 1.2},
      {"measurement": "VEGFA (NM_003376) Expression", "result": "−1.7"}
    ]}
  ]
}
